Laboratory results reported in patent publication EP0192976A1, “Compounds having antihyperlipemic activity, processes for the preparation thereof and pharmaceutical compositions containing them” (BOEHRINGER BIOCHEMIA ROBIN S.p.A., priority 1985, dated 1986).
Read-outs that look alike come from different tables or passages of the source.

What was measured:
[1] = test system: thrombosis induced by the administration of arachidonic acid, as well as colla- gene and adrenalin; assay: Mouse antithrombotic assay (di Minno and Silver); format: in vivo; details: orally administered at doses from 100 to 250 mg/kg; thrombosis induced by arachidonic acid, and by collagen and adrenalin
Source text: Exper. Therap. 225, 57 (1983).

[2] = test system: hypercholesterolemic animals (Nath diet); assay: Hypocholesterolemic/hypotriglyceridemic activity in hypercholesterolemic rats (Nath diet); format: in vivo, Male Sprague-Dawley rats; details: oral
Procedure: (§1) The single compounds were administered orally at single equimolecular gradually increasing doses, in order to comparatively evaluate their hypocholesterolemic and hypotriglyceridemic activities. Normolipidemic, and hypercholesterolemic and hypertriglyceridemic rats, following to administration of diets respectively enriched in cholesterol and cholic acid (Nath diet) or 79.5% fructose, were used.
(§2) Male Sprague-Dawley rats of 180-200 g body weight were used. The compounds under test were administered as 1% tylose suspension, by means of gastric probe, 10 animals per dose in comparison with controls, treated with the sole vehicle.
Four dose levels: 1, 2, 4, 8 10^-3 mol/kg were used for each compound under test. The body growth and liver weight were evaluated.
(§3) In the serum the following values were determined: • a) total cholesterol, by enzymatic method; • b) HDL cholesterol, by enzymatic method, after precipitation of the other lipoproteins by addition of phospho- tungstic acid; • c) triglycerides by enzymatic method, i.e. by means of enzymatic hydrolysis and dosage of the formed glycerol.
(§4) The dosage of the liver triglycerides has been carried out by enzymatic method on the evaporated liver extract with chloroform:methanol 2:1.
(§5) The results were evaluated and expressed as % variation with respect to the control groups.

[3] = test system: fructose induced hypertriglyceridemia; assay: Fructose induced hypertriglyceridemia; format: in vivo, Male Sprague-Dawley rats; details: fructose and Triton induced hypertriglyceridemias (test not given)
Procedure: as §1, §2, §3, §4, §5
The hypotriglyceridemyzing activity of the compounds of the invention, as already mentioned, was evaluated in fructose and Triton induced hypertriglyceridemias, in comparison with the following standard: 1,10-bisL2-(hydroxyethyl)thio]decane (3) and its nicotinate (4) and nicoti- noyloxymethylcarbonyloxy ester (5).
All the compounds were administered 'at equimolecular gradual dosages.

Normolipolysis = assay: Antilipolytic activity, normolipolysis (free fatty acids); format: in vivo; details: for antilipolytic activity: oral, under normal feeding conditions and in lipolysis induced by fasting or adrenalin
Procedure: (§6) The compounds were administered orally. […] The results are expressed as µEq/1 of free fatty acids.
10 Animals per group - Normally feeded for 7 days, then administered with the test compounds.

[4] = test system: Fasting induced lipolysis; assay: Antilipolytic activity, fasting induced lipolysis (free fatty acids); format: in vivo; details: fasted for 24 hours
Procedure: as §6
10 Animals per group - Normally feeded for 6 days, then fasted for 24 hours and orally administered with the test compounds.

[5] = test system: Adrenalin induced lypolysis; assay: Antilipolytic activity, adrenalin induced lipolysis (free fatty acids); format: in vivo; details: 1·10^-3 mol/kg oral
Procedure: as §6
10 Animals per group - Feeded and housed for one weed, then administered orally and stimulated with adrenalin 1 mg/kg i.p., respectively 30 and 60 min. before killing.

ear marginal veins [6] = details: guinea pig, in vivo
Source text: (§7) Such a side-effect may be experimented on male albino Guinea pigs, weighing 300-400 g, normally feeded and housed in silent room, by observing the vasodilation of ear marginal veins, after administration of the test compounds.

ear marginal veins [7] = assay: Vasodilation of ear marginal veins (flushing side-effect); details: Guinea pigs, 1·10^-3 mol/kg
Source text: as §7

[8] = 4·10^-3 mol/kg, % variation versus controls
[9] = 2 hours after 1·10^-3 mol/kg oral single dose, normally fed
[10] = 4 hours after 1·10^-3 mol/kg oral single dose, normally fed
[11] = 8 hours after 1·10^-3 mol/kg oral single dose, normally fed
[12] = Basal, normally fed 7 days, group later given 1·10^-3 mol/kg oral single dose
[13] = 2 hours after 1·10^-3 mol/kg oral single dose
[14] = 4 hours after 1·10^-3 mol/kg oral single dose
[15] = 8 hours after 1·10^-3 mol/kg oral single dose
[16] = 30', adrenalin 1 mg/kg i.p. 30 min before killing
[17] = 60', adrenalin 1 mg/kg i.p. 60 min before killing

Vasodilating effect: Beginning (ear marginal veins [6])	Vasodilating effect: Beginning of disappearance (ear marginal veins [6])	Vasodilating effect: Maximal effect (ear marginal veins [6])	Compound	protection from thrombosis [1]	free fatty acids (Normolipolysis; [9])	free fatty acids (Normolipolysis; [10])	free fatty acids (Normolipolysis; [11])	free fatty acids (Normolipolysis; [12])	free fatty acids [4, 13]	free fatty acids [4, 14]	free fatty acids [4, 15]	FFA [5, 16]	FFA [5, 17]	also measured
			CCC(C)C(NC(=O)c1cccnc1)C(=O)OCCSCCCCCCCCCCSCCOC(=O)C(NC(=O)c1cccnc1)C(C)CC (centres unmarked)	protect the mouse from thrombosis										
			Cc1cnc(C(=O)NCC(=O)OCCSCCCCCCCCCCSCCOC(=O)CNC(=O)c2cnc(C)cn2)cn1 [1,10-bis[2-(5-methylpyrazinoylglycyl)ethylthio]decane]	protect the mouse from thrombosis										
			O=C(NC(Cc1ccccc1)C(=O)OCCSCCCCCCCCCCSCCOC(=O)C(Cc1ccccc1)NC(=O)c1cccnc1)c1cccnc1 (centres unmarked) [1,10-bis[2-(nicotinoylphenylalanyl)ethylthio]decane]	protect the mouse from thrombosis										
==	==	==	O=C(CNC(=O)c1cccnc1)OCCSCCCCCCCCCCSCCOC(=O)CNC(=O)c1cccnc1 [Compound 1]	protect the mouse from thrombosis	200 µEq/1	225 µEq/1	270 µEq/1	230 µEq/1	480 µEq/1	430 µEq/1	400 µEq/1	450 μEq/l	400 μEq/l	liver weight ([2]; 4·10^-3 mol/kg): no substantial changes; decrease in hematic triglycerides [2, 8]: 4%; decrease in hepatic triglycerides [2, 8]: 48%; decrease of total plasmatic cholesterol [2, 8]: 37%; increase in HDL cholesterol [2, 8]: 7%; triglyceride hepatic concentration, percent variations [3]: -10 to +10%
			O=C(O)c1cccnc1 [Compound 2, nicotinic acid]		110 µEq/1	160 µEq/1	560 µEq/1	260 µEq/1	180 µEq/1	190 µEq/1	950 µEq/1	340 μEq/l	650 μEq/l	antilipolytic activity (Normolipolysis): proved to have antilipolytic activity; Vasodilating effect: Beginning (ear marginal veins [7]): 3'; Vasodilating effect: Beginning of disappearance (ear marginal veins [7]): 20'; Vasodilating effect: Maximal effect (ear marginal veins [7]): 6'
			OCCSCCCCCCCCCCSCCO [Compound 3, 1,10-bis[2-(hydroxyethyl)thio]decane]											triglyceride hepatic concentration, increases [3]: 40-50%
10'	48'	25'	O=C(OCCSCCCCCCCCCCSCCOC(=O)c1cccnc1)c1cccnc1 [Compound 4]		120 µEq/1	155 µEq/1	450 µEq/1	230 µEq/1	250 µEq/1	240 µEq/1	970 µEq/1	295 μEq/l	625 μEq/l	preliminar increase of the total cholesterol ([2]; 2·10^-3 mol/kg, versus controls): 10%; HDL concentration ([2]; all the assayed doses, the decrease lessened with increasing dose): marked decrease; triglyceride hematic concentration ([2]; all the tested doses, tendency to decrease with increasing dose): always higher than that in the control animals; decrease of the total cholesterol versus controls ([2]; doses above 2·10^-3 mol/kg, did not vary increasing the dose): 50%; liver weight ([2]; over the tested doses): gradual increase; triglyceride hepatic concentration, increases [3]: 40-50%
13'	51'	30'	O=C(COC(=O)c1cccnc1)OCCSCCCCCCCCCCSCCOC(=O)COC(=O)c1cccnc1 [Compound 5, 1,10-bis[2-(nicotino-yloxymethylcarbonyloxy)ethylthio]decane]		120 µEq/1	170 µEq/1	260 µEq/1	240 µEq/1	207 µEq/1	228 µEq/1	744 µEq/1	270 μEq/l	610 μEq/l	concentration of hepatic triglycerides ([2]; 4·10^-3 mol/kg): increase; decrease in hematic HDL cholesterol [2, 8]: 6%; decrease in hematic triglycerides [2, 8]: 34%; decrease of total plasmatic cholesterol [2, 8]: 30%; triglyceride hepatic concentration, percent variations [3]: -10 to +10%; antilipolytic activity (Normolipolysis): proved to have antilipolytic activity
			O=C(CNC(=O)c1cncc(Br)c1)OCCSCCCCCCCCCCSCCOC(=O)CNC(=O)c1cncc(Br)c1 [Example 5, 1,10-Bis[2-(5-bromn-nicotinoylglicyl)ethyl-thio]decane]	protect the mouse from thrombosis										
			CC(NC(=O)c1cccnc1)C(=O)OCCSCCCCCCCCCCSCCOC(=O)C(C)NC(=O)c1cccnc1 (centres unmarked) [Example 7, 1,10-bis[2-(nicotinoyialanylethyl)thio]decane]	protect the mouse from thrombosis										
